Active and inactive are the calls of the source. The rule behind the calls is not given here.
How the values were obtained:
[1] = Toxicity in LPS-induced activated rat Microglia cells assessed as LDH release at 0.1 to 10 uM
[2] = test system: MDA-MB-231; experiment: Cytotoxicity against human MDA-MB-231 cells at 10 to 30 uM; type: cell-based; conditions: mda-mb-231, 30 µM
[3] = test system: MDA-MB-231; experiment: Antimigratory activity against human MDA-MB-231 cells assessed cell migration level at 10 uM by wound healing assay; type: functional
[4] = test system: Microglia; experiment: Anti-neuroinflammatory activity in LPS-induced activated rat Microglia cells assessed as reduction in super oxide anion radical generation at 10 uM; type: functional
[5] = test system: MDA-MB-231; experiment: Antimigratory activity against human MDA-MB-231 cells assessed cell migration level at 30 uM by wound healing assay; type: functional
[6] = test system: Microglia; experiment: Anti-neuroinflammatory activity in LPS-induced activated rat Microglia cells assessed as reduction in TXB2 release at 10 uM; type: functional
[7] = test system: MCF7; experiment: Growth inhibition of human MCF7 cells assessed as cell growth at 10 uM after 48 hrs by SRB assay; type: functional; conditions: MCF7, 48 h, read-out: Activity
[8] = test system: K562; experiment: Growth inhibition of human K562 cells assessed as cell growth at 10 uM after 48 hrs by SRB assay; type: functional; conditions: K562, 48 h, read-out: Activity
[9] = test system: M14; experiment: Growth inhibition of human M14 cells assessed as cell growth at 10 uM after 48 hrs by SRB assay; type: functional; conditions: M14, 48 h, read-out: Activity
[10] = Growth inhibition of human NCI60 cells assessed as mean cell growth at 10 uM after 48 hrs by SRB assay; type: functional; parameters: scale not given: the % may be the effect or the level left
[11] = test system: HL-60(TB); experiment: Growth inhibition of human HL-60(TB) cells assessed as cell growth at 10 uM after 48 hrs by SRB assay; type: functional; conditions: HL-60, 48 h, read-out: Activity
[12] = test system: PC-3; experiment: Growth inhibition of human PC3 cells assessed as cell growth at 10 uM after 48 hrs by SRB assay; type: functional; conditions: PC-3, 48 h, read-out: Activity
[13] = test system: T47D; experiment: Growth inhibition of human T47D cells assessed as cell growth at 10 uM after 48 hrs by SRB assay; type: functional; conditions: read-out: Activity
[14] = test system: RPMI-8226; experiment: Growth inhibition of human RPMI8226 cells assessed as cell growth at 10 uM after 48 hrs by SRB assay; type: functional; conditions: RPMI-8226, 48 h, read-out: Activity
[15] = test system: MDA-MB-468; experiment: Growth inhibition of human MDA-MB-468 cells assessed as cell growth at 10 uM after 48 hrs by SRB assay; type: functional; conditions: MDA-MB-468, 48 h, read-out: Activity
[16] = test system: Malme-3M; experiment: Growth inhibition of human MALME-3M cells assessed as cell growth at 10 uM after 48 hrs by SRB assay; type: functional; conditions: read-out: Activity
[17] = Anti-neuroinflammatory activity in LPS-induced activated rat Microglia cells assessed as reduction in TXB2 release; type: functional
[18] = test system: SK-MEL-5; experiment: Growth inhibition of human SK-MEL-5 cells assessed as cell growth at 10 uM after 48 hrs by SRB assay; type: functional; conditions: SK-MEL-5, 48 h, read-out: Activity
[19] = Anti-neuroinflammatory activity in LPS-induced activated rat Microglia cells assessed as reduction in super oxide anion radical generation; type: functional
[20] = Growth inhibition of human UACC62 cells assessed as cell growth at 10 uM after 48 hrs by SRB assay; type: functional; conditions: UACC-62, 48 h, read-out: Activity
[21] = Toxicity in LPS-induced activated rat Microglia cells assessed as LDH release at 10 uM

Row | SMILES | Activity [1] | Activity [2] | Activity [3] [%] | inhibition [4] | Activity [5] [%] | inhibition [6] | other results
1 | COc1ccc2c(c1)C1=C(C)C(=O)OC1C[C@H]2O (some centres undefined) | Non-toxic | Non-toxic | 51.6 | inactive | 42.5 | inactive | 
2 | COc1cccc2c1CC[C@@H]1OC(=O)[C@H](C)[C@H]21 | Non-toxic | Non-toxic | 87.6 | inactive | 68.4 | inactive | 
3 | C=CCN1C(=O)C(c2ccccc2)=C2c3cc(OC)ccc3CCC21 (centres undefined) | Non-toxic | Non-toxic | 47.8 | inactive | 32.9 | inactive | growth at 10 µM [7]: 61.5%; growth at 10 µM [8]: 28.3%; growth at 10 µM [9]: 46.7%; Activity [10]: 59.8%; growth at 10 µM [11]: 34.9%; growth at 10 µM [12]: 25.7%; growth at 10 µM [13]: 40.7%; growth at 10 µM [14]: 11.5%; growth at 10 µM [15]: 36.3%; growth at 10 µM [16]: 0.19%; IC50 [17]: 1000 nM; growth at 10 µM [18]: 40.9%; IC50 [19]: 1000 nM; growth at 10 µM [20]: 35.3%
4 | COc1ccc2c(c1)[C@@H]1[C@H](CC2)OC(=O)[C@H]1c1ccccc1 (relative stereo) | Non-toxic | Non-toxic | 100 | inactive | 45.7 | inactive | 
5 | COc1ccc2c(c1)[C@@H]1[C@H](CC2)OC(=O)[C@@H]1c1ccccc1 (relative stereo) | Non-toxic | Non-toxic | 90.7 | inactive | 48.4 | inactive | 
6 | COc1ccc2c(c1)C1=C(CO)C(=O)OC1CC2 (centres undefined) | Non-toxic | Non-toxic | 81.8 | inactive | 61 | inactive | 
7 | NC(=O)Cc1ccccc1 | Non-toxic | Non-toxic | 94.5 | inactive | 70.4 | inactive | 
8 | COc1cccc2c1CCC1OC(=O)C(C)=C21 (centres undefined) |  |  |  |  |  |  | Activity [21]: Toxic
9 | COc1ccc2c(c1)C1=C(c3ccccc3)C(=O)OC1CC2 (centres undefined) | Non-toxic | Non-toxic | 76.7 | inactive | 53.2 |  | growth at 10 µM [7]: 59.5%; growth at 10 µM [8]: 42.1%; growth at 10 µM [9]: 64.9%; Activity [10]: 65.7%; growth at 10 µM [11]: 53%; growth at 10 µM [12]: 32%; growth at 10 µM [13]: 30.9%; growth at 10 µM [14]: 18.1%; growth at 10 µM [15]: 27.4%; growth at 10 µM [16]: 35.9%; IC50 [17]: 1000 nM; growth at 10 µM [18]: 48.7%; growth at 10 µM [20]: 35.4%
10 | COc1ccc2c(c1)C1=C(c3ccccc3)C(=O)OC1C[C@H]2O (some centres undefined) | Non-toxic | Non-toxic | 54.4 | inactive | 45.9 | inactive | 
11 | COc1ccc2c(c1)C1=C(C)C(=O)OC1CC2 (centres undefined) | Non-toxic | Non-toxic | 71.4 | inactive | 47.8 | inactive | growth at 10 µM [7]: 65.2%; growth at 10 µM [8]: 54.2%; growth at 10 µM [9]: 63.7%; Activity [10]: 73.9%; growth at 10 µM [11]: 74.2%; growth at 10 µM [12]: 43%; growth at 10 µM [13]: 64.3%; growth at 10 µM [14]: 20.7%; growth at 10 µM [15]: 40.8%; growth at 10 µM [16]: 35.4%; growth at 10 µM [18]: 65.8%; growth at 10 µM [20]: 57.1%

— ChEMBL document CHEMBL3217605, “Synthesis, microbial transformation, and pharmacological evaluation of 4,5-dihydronaphtho[2,1-b]furan-2-ones and related analogues” (Medchemcomm, 2013)
